According to patent US11352359B2, “PI3K protein kinase inhibitors” (Rhizen Pharmaceuticals SA, priority 2013, dated 2022):

How the values were obtained:
Format in all cases: biochemical
PI3Kα = PI3Kα (Homo sapiens, UniProt P42336); assay: Fluorescent determination of PI3Kinase enzyme activity (HTRF), PI3Kα
Source text: (§1) Fluorescent Determination of PI3Kinase Enzyme Activity
(§2) Phosphoinositide 3 kinases (PI3K) belong to a class of Lipid kinases that play a critical role in the regulation of several key cellular processes. The PI3K are capable of phosphorylating the 3-hydroxy position of phosphoinositols thereby generating second messengers involved in downstream signalling events. The homogenous time resolved fluorescence (HTRF) assay allows detection of 3,4,5-triphosphate (PIP3) formed as a result of phosphorylation of phosphotidylinositol 4,5-biphosphate (PIP2) by PI3K isoforms such as α, […], γ or δ.
(§3) PI3K isoform activity for α, β, γ or δ is to be determined using a PI3K human HTRF™ Assay Kit (Millipore, Billerica, Mass.) with modifications. All incubations were carried out at room temperature. Briefly, 0.5 μl of 40× inhibitor (in 100% DMSO) or 100% DMSO were added to each well of a 384-well black plate (Greiner Bio-One, Monroe, N.C.) containing 14.5 μl 1× reaction buffer/PIP2 (10 mM MgCl2, 5 mM DTT, 1.38 μM PIP2) mix with or without enzyme and incubated for 10 min. After the initial incubation, 5 μl/well of 400 μM ATP was added and incubated for an additional 30 minutes. Reaction was terminated by adding 5 μl/well stop solution (Millipore, Billerica, Mass.). Five microliters of detection mix (Millipore, Billerica, Mass.) were then added to each well and was incubated for 6-18 h in the dark. HRTF ratio was measured on a microplate reader (BMG Labtech, Germany) at an excitation wavelength of 337 nm and emission wavelengths of 665 and 620 nm with an integration time of 400 μsec. Data was analyzed using Graphpad Prism (Graphpad software; San Diego Calif.) for IC50 determination).

PI3Kβ = PI3Kβ (Homo sapiens, UniProt P42338); assay: Fluorescent determination of PI3Kinase enzyme activity (HTRF), PI3Kβ
Source text: as §1, §2, §3

PI3Kδ = PI3Kδ (Homo sapiens, UniProt O00329); assay: Fluorescent determination of PI3Kinase enzyme activity (HTRF), PI3Kδ; conditions: for inhibition at 0.1 µM: 100 nM (underlined values: 300 nM)
Source text: as §1, §2, §3

PI3Kγ = PI3Kγ (Homo sapiens, UniProt P48736); assay: Fluorescent determination of PI3Kinase enzyme activity (HTRF), PI3Kγ; conditions: for inhibition at 0.1 µM: 100 nM (underlined values: 300 nM)
Source text: as §1, §2, §3

Sequence of PI3Kγ (P48736 whole entry): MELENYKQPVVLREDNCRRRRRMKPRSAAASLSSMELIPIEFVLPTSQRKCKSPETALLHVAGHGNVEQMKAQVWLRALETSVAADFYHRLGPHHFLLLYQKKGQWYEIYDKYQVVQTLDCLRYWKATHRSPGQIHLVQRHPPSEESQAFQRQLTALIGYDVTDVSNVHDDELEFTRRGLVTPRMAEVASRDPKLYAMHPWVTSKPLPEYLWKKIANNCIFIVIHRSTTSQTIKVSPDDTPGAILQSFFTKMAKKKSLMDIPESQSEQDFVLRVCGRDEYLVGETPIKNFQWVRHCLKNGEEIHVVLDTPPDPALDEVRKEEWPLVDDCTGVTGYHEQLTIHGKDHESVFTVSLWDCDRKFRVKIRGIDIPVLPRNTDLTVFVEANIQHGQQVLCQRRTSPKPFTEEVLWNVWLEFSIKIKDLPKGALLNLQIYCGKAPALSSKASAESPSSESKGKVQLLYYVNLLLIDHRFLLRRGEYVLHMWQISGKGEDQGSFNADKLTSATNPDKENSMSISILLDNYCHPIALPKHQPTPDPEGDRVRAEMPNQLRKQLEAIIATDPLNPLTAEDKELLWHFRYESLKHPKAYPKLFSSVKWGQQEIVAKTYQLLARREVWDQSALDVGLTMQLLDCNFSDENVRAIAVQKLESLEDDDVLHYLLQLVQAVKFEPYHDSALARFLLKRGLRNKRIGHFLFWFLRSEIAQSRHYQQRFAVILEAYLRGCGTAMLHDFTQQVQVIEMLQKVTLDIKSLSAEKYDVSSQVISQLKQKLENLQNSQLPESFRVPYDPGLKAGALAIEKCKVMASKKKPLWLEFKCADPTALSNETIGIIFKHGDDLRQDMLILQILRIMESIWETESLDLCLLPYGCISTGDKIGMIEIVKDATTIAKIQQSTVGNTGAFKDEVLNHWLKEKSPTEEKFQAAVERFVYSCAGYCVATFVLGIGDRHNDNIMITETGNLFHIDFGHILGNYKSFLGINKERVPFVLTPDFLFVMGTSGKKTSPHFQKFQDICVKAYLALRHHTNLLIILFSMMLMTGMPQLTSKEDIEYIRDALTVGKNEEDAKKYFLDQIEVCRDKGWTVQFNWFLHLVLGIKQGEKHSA
Sequence of PI3Kβ (P42338 whole entry): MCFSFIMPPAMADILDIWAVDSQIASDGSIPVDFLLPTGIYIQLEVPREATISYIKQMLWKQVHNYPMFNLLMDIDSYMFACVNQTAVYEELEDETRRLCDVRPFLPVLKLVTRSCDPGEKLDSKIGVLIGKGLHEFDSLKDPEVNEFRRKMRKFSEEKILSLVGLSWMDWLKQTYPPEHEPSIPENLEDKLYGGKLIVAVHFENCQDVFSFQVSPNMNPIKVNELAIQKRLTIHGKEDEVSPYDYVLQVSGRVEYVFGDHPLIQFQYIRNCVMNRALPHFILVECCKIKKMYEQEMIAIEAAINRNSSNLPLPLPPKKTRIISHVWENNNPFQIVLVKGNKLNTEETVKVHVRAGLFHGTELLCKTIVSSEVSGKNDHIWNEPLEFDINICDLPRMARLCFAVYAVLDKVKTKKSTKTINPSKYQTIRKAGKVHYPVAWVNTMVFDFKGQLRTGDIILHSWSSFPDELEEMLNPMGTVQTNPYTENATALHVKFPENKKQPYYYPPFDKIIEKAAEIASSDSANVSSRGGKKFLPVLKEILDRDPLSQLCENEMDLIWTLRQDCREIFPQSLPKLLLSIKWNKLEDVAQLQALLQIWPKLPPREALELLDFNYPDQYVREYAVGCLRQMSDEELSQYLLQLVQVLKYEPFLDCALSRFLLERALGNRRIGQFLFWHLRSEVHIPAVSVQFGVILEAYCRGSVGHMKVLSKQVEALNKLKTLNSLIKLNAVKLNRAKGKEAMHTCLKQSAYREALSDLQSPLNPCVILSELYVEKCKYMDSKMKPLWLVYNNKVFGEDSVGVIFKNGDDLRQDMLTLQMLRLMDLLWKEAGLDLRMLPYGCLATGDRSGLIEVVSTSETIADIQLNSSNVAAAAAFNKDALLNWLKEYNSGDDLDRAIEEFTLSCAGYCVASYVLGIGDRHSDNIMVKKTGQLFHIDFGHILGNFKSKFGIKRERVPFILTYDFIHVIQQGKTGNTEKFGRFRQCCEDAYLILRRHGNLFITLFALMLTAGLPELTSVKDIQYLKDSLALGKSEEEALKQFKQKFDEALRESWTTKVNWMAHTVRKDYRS
Sequence of PI3Kβ (P27986 whole entry partner): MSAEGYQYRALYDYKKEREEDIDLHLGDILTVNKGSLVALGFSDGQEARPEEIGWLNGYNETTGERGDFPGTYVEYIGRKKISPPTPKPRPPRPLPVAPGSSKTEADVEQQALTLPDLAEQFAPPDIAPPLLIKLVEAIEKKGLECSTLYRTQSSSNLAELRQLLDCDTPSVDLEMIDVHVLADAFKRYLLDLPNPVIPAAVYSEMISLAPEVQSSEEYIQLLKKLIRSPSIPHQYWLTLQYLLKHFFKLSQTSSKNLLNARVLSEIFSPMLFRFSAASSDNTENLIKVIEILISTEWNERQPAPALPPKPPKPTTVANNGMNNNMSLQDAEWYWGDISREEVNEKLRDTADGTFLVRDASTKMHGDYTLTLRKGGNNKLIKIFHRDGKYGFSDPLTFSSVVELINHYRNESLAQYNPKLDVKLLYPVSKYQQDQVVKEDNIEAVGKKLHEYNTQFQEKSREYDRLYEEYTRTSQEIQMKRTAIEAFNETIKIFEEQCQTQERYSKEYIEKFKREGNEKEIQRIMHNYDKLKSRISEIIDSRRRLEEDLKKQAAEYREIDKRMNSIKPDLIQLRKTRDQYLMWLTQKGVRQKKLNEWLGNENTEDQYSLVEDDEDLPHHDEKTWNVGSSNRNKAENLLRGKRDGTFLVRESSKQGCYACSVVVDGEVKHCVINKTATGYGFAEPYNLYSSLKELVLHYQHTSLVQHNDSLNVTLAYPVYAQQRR
Sequence of PI3Kα (P42336 whole entry): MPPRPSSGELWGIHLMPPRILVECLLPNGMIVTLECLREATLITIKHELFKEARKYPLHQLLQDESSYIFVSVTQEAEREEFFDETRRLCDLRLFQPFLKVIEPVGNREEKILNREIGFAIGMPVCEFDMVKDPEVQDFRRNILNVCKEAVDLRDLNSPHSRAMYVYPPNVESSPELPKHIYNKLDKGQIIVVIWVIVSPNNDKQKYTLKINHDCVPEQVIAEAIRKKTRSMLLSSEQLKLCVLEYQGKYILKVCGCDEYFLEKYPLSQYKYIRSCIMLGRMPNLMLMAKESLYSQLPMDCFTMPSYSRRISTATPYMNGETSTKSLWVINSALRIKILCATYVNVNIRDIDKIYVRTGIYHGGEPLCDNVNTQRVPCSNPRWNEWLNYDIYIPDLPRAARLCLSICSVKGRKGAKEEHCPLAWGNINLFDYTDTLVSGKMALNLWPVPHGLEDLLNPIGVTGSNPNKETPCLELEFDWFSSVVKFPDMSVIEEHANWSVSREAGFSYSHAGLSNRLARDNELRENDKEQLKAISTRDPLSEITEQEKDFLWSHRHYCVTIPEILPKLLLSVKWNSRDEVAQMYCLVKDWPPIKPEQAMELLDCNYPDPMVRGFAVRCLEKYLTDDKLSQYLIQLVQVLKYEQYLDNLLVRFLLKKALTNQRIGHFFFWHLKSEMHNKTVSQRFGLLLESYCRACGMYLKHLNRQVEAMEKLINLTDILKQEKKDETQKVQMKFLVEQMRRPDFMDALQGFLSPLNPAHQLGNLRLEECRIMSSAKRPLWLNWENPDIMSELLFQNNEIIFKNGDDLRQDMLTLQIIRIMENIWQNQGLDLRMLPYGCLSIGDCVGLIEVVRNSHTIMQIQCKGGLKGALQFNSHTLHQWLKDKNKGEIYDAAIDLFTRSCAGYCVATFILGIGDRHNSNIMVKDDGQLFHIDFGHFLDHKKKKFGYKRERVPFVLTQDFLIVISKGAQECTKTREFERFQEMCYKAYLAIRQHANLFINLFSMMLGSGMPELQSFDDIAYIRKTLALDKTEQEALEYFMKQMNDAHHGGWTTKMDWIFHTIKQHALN
Sequence of PI3Kα (P27986 whole entry partner): as the sequence (P27986 whole entry partner) above
Sequence of PI3Kδ (O00329 whole entry): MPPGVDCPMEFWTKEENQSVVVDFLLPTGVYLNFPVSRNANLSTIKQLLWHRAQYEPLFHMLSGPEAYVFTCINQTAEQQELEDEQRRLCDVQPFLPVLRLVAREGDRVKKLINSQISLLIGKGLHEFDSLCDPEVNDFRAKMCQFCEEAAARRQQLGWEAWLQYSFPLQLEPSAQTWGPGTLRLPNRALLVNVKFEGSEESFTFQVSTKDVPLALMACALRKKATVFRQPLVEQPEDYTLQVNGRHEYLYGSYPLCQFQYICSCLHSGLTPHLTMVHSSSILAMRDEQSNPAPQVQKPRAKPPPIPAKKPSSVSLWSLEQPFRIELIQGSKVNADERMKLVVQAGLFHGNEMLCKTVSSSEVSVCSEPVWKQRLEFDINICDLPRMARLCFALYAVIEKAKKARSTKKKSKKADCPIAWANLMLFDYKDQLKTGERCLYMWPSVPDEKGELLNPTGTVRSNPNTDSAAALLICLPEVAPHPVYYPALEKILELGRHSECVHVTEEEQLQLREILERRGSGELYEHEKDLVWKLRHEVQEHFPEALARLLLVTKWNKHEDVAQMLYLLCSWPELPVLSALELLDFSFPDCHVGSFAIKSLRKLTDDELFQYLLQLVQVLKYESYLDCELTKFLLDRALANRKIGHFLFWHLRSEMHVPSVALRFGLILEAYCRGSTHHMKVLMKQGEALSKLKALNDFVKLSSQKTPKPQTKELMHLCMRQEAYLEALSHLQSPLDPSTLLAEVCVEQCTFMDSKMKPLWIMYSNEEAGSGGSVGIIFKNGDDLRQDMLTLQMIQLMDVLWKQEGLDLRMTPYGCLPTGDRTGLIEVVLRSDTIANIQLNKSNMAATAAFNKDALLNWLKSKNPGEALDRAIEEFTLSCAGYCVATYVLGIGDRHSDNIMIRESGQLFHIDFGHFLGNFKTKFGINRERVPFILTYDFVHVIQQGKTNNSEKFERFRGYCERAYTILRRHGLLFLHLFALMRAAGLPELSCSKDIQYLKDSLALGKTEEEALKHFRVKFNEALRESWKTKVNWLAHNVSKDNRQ
Sequence of PI3Kδ (P27986 whole entry partner): as the sequence (P27986 whole entry partner) above

| inhibition at 1 µM (PI3Kα) | inhibition at 1 µM (PI3Kβ) | inhibition at 0.1 µM (PI3Kδ) | inhibition at 0.1 µM (PI3Kγ) | IC50 (PI3Kδ) | IC50 (PI3Kγ) | Compound |
| --- | --- | --- | --- | --- | --- | --- |
| 0 to 10% | 20 to 40% | 0 to 20% | 20 to 40% |  |  | COc1ccc(-c2nn(C(C)c3nc4ccccc4c(=O)n3-c3ccccc3)c3ncnc(N)c23)cc1NS(C)(=O)=O (stereo not shown) [Example 12, N-(5-(4-amino-1-(1-(4-oxo-3-phenyl-3,4-dihydroquinazolin-2-yl)ethyl)-1H-pyrazolo[3,4-d]pyrimidin-3-yl)-2-methoxyphenyl)methanesulfonamide] |
| 0 to 10% | 10 to 20% | 80 to 100% | 80 to 100% | 4.2 nM | 19.5 nM | C[C@@H](c1cc2cccc(Cl)c2c(=O)n1-c1ccccc1)n1nc(-c2ccc(O)c(F)c2)c2c(N)ncnc21 [Example 14a, (+)-3-(1-(4-amino-3-(3-fluoro-4-hydroxyphenyl)-1H-pyrazolo[3,4-d]pyrimidin-1-yl)ethyl)-8-chloro-2-phenylisoquinolin-1(2H)-one] |
| 0 to 10% | 10 to 20% | 80 to 100% | 40 to 60% | 9.99 nM | 52 nM | C[C@@H](c1cc2cccc(F)c2c(=O)n1-c1ccccc1)n1nc(-c2ccc(O)c(F)c2)c2c(N)ncnc21 [Example 15a, (+)-3-(1-(4-amino-3-(3-fluoro-4-hydroxyphenyl)-1H-pyrazolo[3,4-d]pyrimidin-1-yl)ethyl)-8-fluoro-2-phenylisoquinolin-1(2H)-one] |
| 0 to 10% | 10 to 20% | 80 to 100% | 20 to 40% | 33.3 nM | 122 nM | C[C@@H](c1nc2cccc(F)c2c(=O)n1-c1ccccc1)n1nc(-c2ccc(O)c(F)c2)c2c(N)ncnc21 [Example 16a, (+)-2-(1-(4-amino-3-(3-fluoro-4-hydroxyphenyl)-1H-pyrazolo[3,4-d]pyrimidin-1-yl)ethyl)-5-fluoro-3-phenylquinazolin-4(3H)-one] |
| 20 to 40% | 40 to 60% | 80 to 100% | 80 to 100% |  |  | CC(c1cc2cccc(Cl)c2c(=O)n1-c1ccccc1)n1nc(-c2ccc(OC(F)F)c(F)c2)c2c(N)ncnc21 (stereo not shown) [Example 17, 3-(1-(4-amino-3-(4-(difluoromethoxy)-3-fluorophenyl)-1H-pyrazolo[3,4-d]pyrimidin-1-yl)ethyl)-8-chloro-2-phenylisoquinolin-1(2H)-one] |
| 0 to 10% | 0 to 10% | 20 to 40% | 0 to 20% |  |  | C[C@@H](c1cc2cccc(Cl)c2c(=O)n1-c1ccccc1)n1nc(-c2ccc(OC(F)F)c(F)c2)c2c(N)ncnc21 [Example 17a, (+)-3-(1-(4-amino-3-(4-(difluoromethoxy)-3-fluorophenyl)-1H-pyrazolo[3,4-d]pyrimidin-1-yl)ethyl)-8-chloro-2-phenylisoquinolin-1(2H)-one] |
| 40 to 60% | 20 to 40% | 80 to 100% | 60 to 80% |  |  | COc1ccc(-c2nn(C(C)c3cc4cccc(Cl)c4c(=O)n3-c3ccccc3)c3ncnc(N)c23)cc1NS(C)(=O)=O (stereo not shown) [Example 20, N-(5-(4-amino-1-(1-(8-chloro-1-oxo-2-phenyl-1,2-dihydroisoquinolin-3-yl)ethyl)-1H-pyrazolo[3,4-d]pyrimidin-3-yl)-2-methoxyphenyl)methanesulfonamide] |
| 0 to 10% | 10 to 20% | 60 to 80% | 20 to 40% | 76.4 nM | 142 nM | COc1ccc(-c2nn([C@@H](C)c3cc4cccc(Cl)c4c(=O)n3-c3ccccc3)c3ncnc(N)c23)cc1NS(C)(=O)=O [Example 20a, (+)—N-(5-(4-amino-1-(1-(8-chloro-1-oxo-2-phenyl-1,2-dihydroisoquinolin-3-yl)ethyl)-1H-pyrazolo[3,4-d]pyrimidin-3-yl)-2-methoxyphenyl)methanesulfonamide] |

Second part, the compound before the results:

| Compound | inhibition at 1 µM (PI3Kα) | inhibition at 1 µM (PI3Kβ) | inhibition at 0.1 µM (PI3Kδ) | inhibition at 0.1 µM (PI3Kγ) | IC50 (PI3Kδ) | IC50 (PI3Kγ) |
| --- | --- | --- | --- | --- | --- | --- |
| CC(C)Oc1ccc(-c2nn(C(C)c3cc4cccc(F)c4c(=O)n3-c3ccccc3)c3ncnc(N)c23)cc1F (stereo not shown) [Example 2, 3-(1-(4-amino-3-(3-fluoro-4-isopropoxyphenyl)-1H-pyrazolo[3,4-d]pyrimidin-1-yl)ethyl)-8-fluoro-2-phenylisoquinolin-1(2H)-one] | 0 to 10% | 10 to 20% | 0 to 20% | 0 to 20% |  |  |
| CC(C)Oc1ccc(-c2nn(C(C)c3nc4cccc(F)c4c(=O)n3-c3ccccc3)c3ncnc(N)c23)cc1F (stereo not shown) [Example 3, 2-(1-(4-amino-3-(3-fluoro-4-isopropoxyphenyl)-1H-pyrazolo[3,4-d]pyrimidin-1-yl)ethyl)-5-fluoro-3-phenylquinazolin-4(3H)-one] | 0 to 10% | 10 to 20% | 0 to 20% | 0 to 20% |  |  |
| CC(C)Oc1ccc(-c2nn(C(C)c3nc4ccc(F)cc4c(=O)n3-c3ccccc3)c3ncnc(N)c23)cc1F (stereo not shown) [Example 4, 2-(1-(4-amino-3-(3-fluoro-4-isopropoxyphenyl)-1H-pyrazolo[3,4-d]pyrimidin-1-yl)ethyl)-6-fluoro-3-phenylquinazolin-4(3H)-one] | 0 to 10% | 20 to 40% | 0 to 20% | 40 to 60% |  |  |
| CC(C)Oc1ccc(-c2nn(C(C)c3cc4ccccc4c(=O)n3-c3ccccc3)c3ncnc(N)c23)cc1F (stereo not shown) [Example 5, 3-(1-(4-amino-3-(3-fluoro-4-isopropoxyphenyl)-1H-pyrazolo[3,4-d]pyrimidin-1-yl)ethyl)-2-phenylisoquinolin-1(2H)-one] | 0 to 10% | 10 to 20% | 80 to 100% | 60 to 80% |  |  |
| CC(C)Oc1ccc(-c2nn([C@@H](C)c3cc4ccccc4c(=O)n3-c3ccccc3)c3ncnc(N)c23)cc1F [Example 5a, (+)-3-(1-(4-amino-3-(3-fluoro-4-isopropoxyphenyl)-1H-pyrazolo[3,4-d]pyrimidin-1-yl)ethyl)-2-phenylisoquinolin-1(2H)-one] | 0 to 10% | 20 to 40% | 80 to 100% | 60 to 80% | 3.05 nM | 22.2 nM |
| CC(C)Oc1ccc(-c2nn(C(C)c3nc4ccccc4c(=O)n3-c3ccccc3)c3ncnc(N)c23)cc1F (stereo not shown) [Example 6, 2-(1-(4-amino-3-(3-fluoro-4-isopropoxyphenyl)-1H-pyrazolo[3,4-d]pyrimidin-1-yl)ethyl)-3-phenylquinazolin-4(3H)-one] | 0 to 10% | 0 to 10% | 80 to 100% | 40 to 60% |  |  |
| CC(C)Oc1ccc(-c2nn([C@@H](C)c3nc4ccccc4c(=O)n3-c3ccccc3)c3ncnc(N)c23)cc1F [Example 6a, (+)-2-(1-(4-amino-3-(3-fluoro-4-isopropoxyphenyl)-1H-pyrazolo[3,4-d]pyrimidin-1-yl)ethyl)-3-phenylquinazolin-4(3H)-one] | 0 to 10% | 20 to 40% | 80 to 100% | 40 to 60% | 2.74 nM | 15 nM |
| CC(c1cc2ccccc2c(=O)n1-c1ccccc1)n1nc(-c2ccc(O)c(F)c2)c2c(N)ncnc21 (stereo not shown) [Example 7, 3-(1-(4-amino-3-(3-fluoro-4-hydroxyphenyl)-1H-pyrazolo[3,4-d]pyrimidin-1-yl)ethyl)-2-phenylisoquinolin-1(2H)-one] | 10 to 20% | 20 to 40% | 40 to 60% | 20 to 40% |  |  |
| C[C@@H](c1cc2ccccc2c(=O)n1-c1ccccc1)n1nc(-c2ccc(O)c(F)c2)c2c(N)ncnc21 [Example 7a, (+)-3-(1-(4-amino-3-(3-fluoro-4-hydroxyphenyl)-1H-pyrazolo[3,4-d]pyrimidin-1-yl)ethyl)-2-phenylisoquinolin-1(2H)-one] | 0 to 10% | 20 to 40% | 60 to 80% | 60 to 80% | 13.3 nM | 57.7 nM |
| COc1ccc(-c2nn([C@@H](C)c3cc4ccccc4c(=O)n3-c3ccccc3)c3ncnc(N)c23)cc1NS(C)(=O)=O [Example 9a, (+)—N-(5-(4-amino-1-(1-(1-oxo-2-phenyl-1,2-dihydroisoquinolin-3-yl)ethyl)-1H-pyrazolo[3,4-d]pyrimidin-3-yl)-2-methoxyphenyl)methanesulfonamide] | 0 to 10% | 20 to 40% | 80 to 100% | 40 to 60% | 16.2 nM | 203 nM |
